These results are taken from patent US20050079529A1, “Very large scale immobilized polymer synthesis” (Affymetrix, INC., priority 1989, published 2005).

Square brackets hold non-standard residues; d marks the D form. Ends that are not written are not given here.

One test deals with Herz antibody. The test can be described thus: Array of sixteen amino acid sequences, relative binding to Herz antibody by fluorescence. Also on record: species or system mouse. The note with it: FIG. 17. From the text: Using techniques similar to those set forth above, an array of 16 different amino acid sequences (replicated four times) was synthesized on each of two glass substrates. The sequences were synthesized by attaching the sequence NVOC-GFL across the entire surface of the slides. Using a series of masks, two layers of amino acids were then selectively applied to the substrate. Each region had dimensions of 0.25 cm×0.0625 cm. The first slide contained amino acid sequences containing only L amino acids while the second slide contained selected D amino acids. FIGS. 15A and 15B illustrate a map of the various regions on the first and second slides, respectively. The patterns shown in FIGS. 15A and 15B were duplicated four times on each slide. The slides were then exposed to the Herz antibody and fluorescein-labeled goat anti-mouse.
FIG. 16 is a fluorescence plot of the first slide, which contained only L amino acids. Light shading indicates strong binding (149,000 counts or more) while black indicates little or no binding of the Herz antibody (20,000 counts or less). The bottom right-hand portion of the slide appears “cut off” because the slide was broken during processing. […]
FIG. 17 is a fluorescence plot of the second slide. […]
Table 2 lists the various sequences tested in order of relative fluorescence, which provides information regarding relative binding affinity. […]

The subject of test [1] is anti-dynorphin B monoclonal antibody. The test can be described thus: Dynorphin B deletion peptide array, relative binding of anti-dynorphin B monoclonal antibody by fluorescence intensity.
Procedure: The binding epitope on dynorphin B for the anti-dynorphin B antibody described above was determined by deleting various amino acids and combinations of amino acids from the overall sequence of dynorphin B. The peptides containing these various deletions were prepared on a substrate by the general protection-deprotection methods described above. Then the substrate was exposed to the anti-dynorphin B monoclonal antibody and a fluorescence image was produced as shown in FIG. 33.
From the intensity distribution contained in this plot, it was possible to determine the relative binding affinity to various of the peptides.
Test [2] deals with anti-dynorphin B murine monoclonal antibody. The test can be described thus: 4×10 peptide array related to dynorphin B screened with anti-dynorphin B antibody and labeled goat anti-mouse antibody. The note with it: FIG. 30. In kind it is binding. From the text:
An array of peptides synthesized using the general protection-deprotection technology outlined above. Referring to FIG. 30, the following peptides were synthesized: row 1=RXFKVVT; row 2=RQXFKVVT; row 3=RQXKVVT; and row 4=RXKVVT. In each row, “X” represents a group of four amino acids, which were simultaneously added to the immobilized peptide. The particular group of amino acids used as “X” on a given block are identified by column number as follows: column 1 [G,A,R,K in a ratio 1:1:1:1], column 2 [null]; column 3 [C,M,S,T in the ratio 1:1:1:5]; column 4 [null]; column 5 [F,Y,W,H in the ratio 1:1:1:1]; column 6 [null]; column 7 [D,E,N,Q in the ratio 1:1:1:1]; column 8 [null]; column 9 [V,L,I,P in the ratio 2:1:4:1]; and column 10 [null].
After these peptides were synthesized, they were screened with an anti-dynorphin B murine monoclonal antibody and then exposed to a fluorescently labeled goat anti-mouse antibody. […] Other strongly labeled regions, include column 7, row 1 and column 5, row 3, each of which contains some peptides having the above binding epitope. It should be noted that the varying ratios of some of the amino acids within a given group were necessary to obtain roughly equal binding efficiencies among the four amino acids.

Regarding “YpGFL: SEQ ID NO:24; lower case letters represent D-amino acids (Y[dP]GFL)”, the “binding of Herz antibody, second slide (selected D amino acids)” value with Herz antibody is reported as “Significant binding”.

With RQFKVVT, in test [1] (mean ± spread over N synthesis sites), the “RELATIVE INTENSITY” value worked out at 93.6 ± 10.0. Further, the “RELATIVE INTENSITY, value in parentheses (ADJUSTED)” value in test [1] (second value in parentheses) was “(96.2 ± 7.1)”. Also, the “fluorescence labeling of array region” value in test [2] is recorded as “brightest region”.
